In paper PMC9558053, “Development of a novel high-throughput screen for the identification of new inhibitors of protein S-acylation” (The Journal of Biological Chemistry, 2022):
pIC50: −log10 of the molar value.

What was measured:
purified human zDHHC2 = biological target: T1, purified human zDHHC2 (Homo sapiens, UniProt Q9UIJ5); assay: In vitro SNAP25 S-acylation by purified zDHHC2, copper-free click chemistry, ELISA; type: biochemical; settings: for inhibition at 3 µM / inhibition at 10 µM: in vitro ELISA, UoS, read-out: zDHHC2-mediated SNAP25 S-acylation inhibition (%); for inhibition at 3 µM: compound 3 μM; for inhibition at 10 µM: compound 10 μM; for pIC50 / SNAP25 S-acylation by purified zDHHC2, SDS-PAGE and Western blotting: in vitro; for pIC50: ELISA, concentrations 0.3 to 30 μM, read-out: zDHHC2-mediated substrate (SNAP25) S-acylation IC50 (95 CI); for SNAP25 S-acylation by purified zDHHC2, SDS-PAGE and Western blotting: selected samples at 3 or 10 μM
T1 construct: StrepII (C); made in house; host or cells: Sf9 TriEX insect cells, baculovirus
T1 sequence (Q9UIJ5 1-367): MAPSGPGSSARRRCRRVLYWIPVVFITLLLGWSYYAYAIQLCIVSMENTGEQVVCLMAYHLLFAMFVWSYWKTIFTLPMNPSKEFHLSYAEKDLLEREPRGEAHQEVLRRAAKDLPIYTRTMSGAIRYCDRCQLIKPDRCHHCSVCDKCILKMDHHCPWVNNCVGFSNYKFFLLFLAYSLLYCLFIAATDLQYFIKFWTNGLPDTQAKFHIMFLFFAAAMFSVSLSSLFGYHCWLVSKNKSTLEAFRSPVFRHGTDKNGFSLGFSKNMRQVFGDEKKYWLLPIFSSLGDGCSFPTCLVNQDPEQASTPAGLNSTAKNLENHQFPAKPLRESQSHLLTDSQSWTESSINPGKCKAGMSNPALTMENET

human zDHHC2 = biological target: T2, human zDHHC2 (Homo sapiens, UniProt Q9UIJ5); assay: PSD95-mCHERRY S-acylation in HEK293T cells co-expressing zDHHC2; type: cell-based; settings: 25 μM
T2 construct: expressed in transfected cells; host or cells: HEK293T
T2 sequence (Q9UIJ5 1-367): T1 sequence (Q9UIJ5 1-367)
Text: (§1) PSD95 (postsynaptic density protein 95) is a major S-acylated protein that has a critical role in the maturation of excitatory neurons and in synaptic plasticity ([46], [47]). PSD95 can be S-acylated by zDHHC2, zDHHC3, zDHHC7, and zDHHC15 ([6]). […] We therefore tested the effects of TTZ-1 and TTZ-2 on the S-acylation of PSD95 mediated by zDHHC2, zDHHC3, zDHHC7, and zDHHC15. […] In contrast, zDHHC3 and zDHHC7 activities toward PSD95 were unaffected by TTZ-1 and TTZ-2, mirroring the data obtained with GFP-SNAP25 as a substrate.
(§2) Figure 9 Activity of TTZ-1 and TTZ-2 against PSD95 S-acylation mediated by human zDHHC2, zDHHC3, zDHHC7, and zDHHC15 expressed in mammalian cells. HEK293T cells were transfected with a plasmid encoding PSD95-mCHERRY together with either a control plasmid pEF-BOS-HA (pEF) or a plasmid encoding either HA-tagged human zDHHC2 (zD2), zDHHC3 (zD3), zDHHC7 (zD7), or zDHHC15 (zD15) for 24 h. Cells were then preincubated for 4 h with TTZ-1 or TTZ-2 (25 μM final) or DMSO control before metabolic labeling with 100 μM C16:0-azide for 4 h. Cells were lysed, and proteins having incorporated C16:0-azide were labeled by click chemistry with an alkyne-IR800 dye. […] The data were quantified, and the graphs below each set of membranes show mean ± SEM of normalized S-acylation of PSD95-mCHERRY (click signal/RFP signal). […]

human zDHHC3 = biological target: T3, human zDHHC3 (Homo sapiens, UniProt Q9NYG2); assay: PSD95-mCHERRY S-acylation in HEK293T cells co-expressing zDHHC3; type: cell-based; settings: 25 μM
T3 construct: expressed in transfected cells; host or cells: HEK293T
T3 sequence (Q9NYG2 1-299): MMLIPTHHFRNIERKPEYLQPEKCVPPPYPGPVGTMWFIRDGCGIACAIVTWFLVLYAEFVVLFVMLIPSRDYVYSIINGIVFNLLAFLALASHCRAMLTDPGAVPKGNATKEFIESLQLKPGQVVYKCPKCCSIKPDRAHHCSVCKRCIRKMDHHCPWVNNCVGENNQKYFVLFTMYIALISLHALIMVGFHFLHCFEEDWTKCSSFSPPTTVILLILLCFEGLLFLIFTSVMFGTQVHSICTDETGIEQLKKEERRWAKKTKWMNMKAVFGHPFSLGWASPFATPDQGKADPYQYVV
Text: as §1, §2

O=C(Nc1cccc2c1OC(c1nnn[nH]1)CN2)c1ccc(OCCCCc2ccccc2)cc1 (stereo not drawn) [TTZ-2, N-(2-(1H-Tetrazol-5-yl)-3,4-dihydro-2H-benzo[b][1,4]oxazin-8-yl)-4-(4-phenylbutoxy)benzamide]
inhibition at 3 µM (purified human zDHHC2): 64% | inhibition at 10 µM (purified human zDHHC2): 81% | pIC50 (purified human zDHHC2): 5.89 | SNAP25 S-acylation by purified zDHHC2, SDS-PAGE and Western blotting (purified human zDHHC2): confirmed the inhibitory activity | PSD95-mCHERRY S-acylation by zDHHC2 (human zDHHC2): significantly inhibited | PSD95-mCHERRY S-acylation by zDHHC3 (human zDHHC3): unaffected

CCCCCCCOc1ccc(C(=O)Nc2cccc3c2OC(c2nnn[nH]2)CN3)cc1 (stereo not drawn) [TTZ-1, N-(2-(1H-Tetrazol-5-yl)-3,4-dihydro-2H-benzo[b][1,4]oxazin-8-yl)-4-(heptyloxy)benzamide]
inhibition at 3 µM (purified human zDHHC2): 30% | inhibition at 10 µM (purified human zDHHC2): 77% | pIC50 (purified human zDHHC2): 5.33 | SNAP25 S-acylation by purified zDHHC2, SDS-PAGE and Western blotting (purified human zDHHC2): confirmed the inhibitory activity | PSD95-mCHERRY S-acylation by zDHHC2 (human zDHHC2): significantly inhibited | PSD95-mCHERRY S-acylation by zDHHC3 (human zDHHC3): unaffected
